Results on two compounds are retold here after US5883102A, “Pharmaceutically active compounds” (Astra Pharmaceuticals Limited, priority 1995, dated 1999).

Structures can show the parent of a compound that is named as a salt.

The target of this assay is T1, human form of induced nitric oxide synthase (Homo sapiens, UniProt P35228).
T1 construct: Nitric oxide synthase is produced by cells in response to interferon; endogenous in cells; host or cells: DLD1 human colon adenocarcinoma cell line (European Collection of Animal Cell Culture, cell line number 90102540), induced with IL-1beta and IFN-gamma; crude lysate
In words: activity against the human form of induced nitric oxide synthase, lysate of induced human colon adenocarcinoma cell line DLD1. It counts as biochemical. To be noted: IL-1β and IFN-γ induced, preincubated 1 hour at 37° C., then 1 hour at 37° C., read-out: IC50 (concentration of drug substance which gives 50% enzyme inhibition in the assay).

Procedure: Enzyme is prepared, after induction, from the cultured human colon adenocarcinoma cell line DLD1 (obtained from the European Collection of Animal Cell Culture--cell line number 90102540). DLD1 cells are cultured in RPMI 1640 medium supplemented with 10% foetal bovine serum, 4 mM L-glutamine and antibiotics (100 units/ml penicillin G, 100 μg/ml streptomycin and 0.25 μg/ml amphotericin B). Cells are routinely grown in 225 cm^3 flasks containing 35 ml kept at 37° C. and in a humified atmosphere containing 5% CO2.
Nitric oxide synthase is produced by cells in response to interferon-γ (IFN-γ) and inter-leukin-1β (IL-1β). The medium from confluent flasks is removed and replaced with 25 ml (per flask) of fresh medium containing 250 units/ml IL-1β and 1000 units/ml IFN-γ. After a period of 17-20 hours in culture, harvesting of cells is accomplished by scraping the cell monolayer from the flask surface into the culture medium. […]
Labelled L-citrulline is separated from labelled L-arginine using Dowex AG-50W. […] After allowing the samples to dry the L-citrulline is quantified by scintillation counting.
Compounds are tested at a range of concentrations and from the inhibitions obtained IC50 values are calculated.

Consider `NC1=NC(c2ccccc2)Nc2ccccc21` (centres unmarked) [Example 1, 1,2-Dihydro-2-phenyl-4-quinazolinamine hydrochloride], for which the IC50 is less than 25 µM.

On to `CCOC(=O)NCCC1N=C(N)c2ccccc2N1` (centres unmarked) [Example 52, Ethyl N-(4-Amino-1,2-dihydroquinazolin-2-ylethyl)carbamate hydrochloride], for which the IC50 is less than 25 µM.
